Where two headings read alike, the source gives them in different places.
Columns and labels:
human serum albumin = human serum albumin (Homo sapiens, UniProt P02768); assay: Non-enzymatic glycosylation of human serum albumin, [14C]-glucose incorporation; assay type: biochemical; conditions: for non-enzymatic glycosylation of human serum albumin in vitro: Table 8 assay; for % [14C-glucose] Incorporated: test compound 19.1 mM, 100 mM [14C]-D-glucose, human serum albumin, 37° C., 8 days, control 1.50
proteins = conditions: in vitro; cited from earlier work
rats [1] = conditions: cited from earlier work; for effect on hyperglycemia: chronic oral
[2] = cited from earlier work
[3] = test system: advanced glycosylation endproducts; conditions: in vivo; cited from earlier work
mice [4] = conditions: cited from earlier work
[5] = cited from earlier work; remark: listed apart in the source
[6] = cited from earlier work; remark: listed apart in the source
rats [7] = conditions: cited from earlier work
[8] = test system: erythrocyte plasma membranes; conditions: incubated with glucose in vitro, cited from earlier work
mice [9] = conditions: cited from earlier work; for effect on hyperglycemia / effect on blood glucose concentration: chronic oral; for effect on blood glucose concentration: 250 mg/kg/day
KKAy mice [10] = assay: Reduction of non-fasting blood glucose in KKAy mice, compound admixed in chow; assay type: in vivo, mouse; conditions: for % Change Blood Glucose: Day 3 vs Day-1
From the text: (§1) KKAy mice are rodent models of NIDDM and obesity (Chang, Wyse, Copeland, Peterson, and Ledbetter, 1986). A pre-treatment blood sample was obtained from the retro-orbital sinus and the mice arranged in groups of 6 so that the mean pre-treatment blood glucose level was the same on average in all groups. […] Control mice received unsupplemented chow. On Day 0, the mice were weighed and provided control chow or chow supplemented with test compounds. After 3 days of consuming control chow or chow supplemented with test compounds, a blood sample was obtained for determination of the glucose concentration and the animals were weighed for determination of weight loss. Food consumption was measured by weighing the food provided at the beginning of the study and the food residue at the end of the study. Food consumption was calculated by subtracting the weight of the residue from the weight of the food provided. […] Blood glucose data are expressed as the average blood glucose concentration in the test group divided by the average blood glucose level in the control group (treatment/control or T/C). Compounds resulting in T/C values equal to or less than 0.90 are considered to be active anti-hyperglycemic agents. Weigh loss data are expressed as percent change in body weight. Compounds resulting in a decrease of 1% or more less than control in body weight over three days are considered to be active anti-obesity agents.

[11] = Body weight change in KKAy mice, compound admixed in chow; assay type: in vivo, mouse; conditions: for % Change Body Weight: Day 3 vs Day-1
From the text: as §1, with “provided. Drug intake was calculated by multiplying food consumption by 0.5%.” for “provided.”

KKAy mice [12] = assay: Intraperitoneal glucose tolerance in diabetic KKAy mice; assay type: in vivo, mouse; conditions: for Blood Glucose: KKAy mice, 100 mg/kg oral gavage
C57BL mice = assay: Intraperitoneal glucose tolerance in non-diabetic C57BL mice; assay type: in vivo, mouse; conditions: for Blood Glucose: C57BL mice, 100 mg/kg oral gavage
[13] = 0.5% in chow (approx. 500 mg/kg/day)
[14] = 30 min after 2 g/kg glucose I.P.
[15] = 60 min after 2 g/kg glucose I.P.
[16] = 90 min after 2 g/kg glucose I.P.
[17] = fasted 16-17 h, Time 0 (before 2 g/kg glucose I.P.)
[18] = 0.03% in chow (approx. 30 mg/kg/day)
[19] = 0.06% in chow (approx. 60 mg/kg/day)
[20] = 0.10% in chow (approx. 100 mg/kg/day)
[21] = 0.2% in chow (approx. 200 mg/kg/day)
[22] = 0.3% in chow (approx. 300 mg/kg/day)
[23] = 0.4% in chow (approx. 400 mg/kg/day)
[24] = normal or alloxan-diabetic rats

Sequence of human serum albumin (P02768 25-609): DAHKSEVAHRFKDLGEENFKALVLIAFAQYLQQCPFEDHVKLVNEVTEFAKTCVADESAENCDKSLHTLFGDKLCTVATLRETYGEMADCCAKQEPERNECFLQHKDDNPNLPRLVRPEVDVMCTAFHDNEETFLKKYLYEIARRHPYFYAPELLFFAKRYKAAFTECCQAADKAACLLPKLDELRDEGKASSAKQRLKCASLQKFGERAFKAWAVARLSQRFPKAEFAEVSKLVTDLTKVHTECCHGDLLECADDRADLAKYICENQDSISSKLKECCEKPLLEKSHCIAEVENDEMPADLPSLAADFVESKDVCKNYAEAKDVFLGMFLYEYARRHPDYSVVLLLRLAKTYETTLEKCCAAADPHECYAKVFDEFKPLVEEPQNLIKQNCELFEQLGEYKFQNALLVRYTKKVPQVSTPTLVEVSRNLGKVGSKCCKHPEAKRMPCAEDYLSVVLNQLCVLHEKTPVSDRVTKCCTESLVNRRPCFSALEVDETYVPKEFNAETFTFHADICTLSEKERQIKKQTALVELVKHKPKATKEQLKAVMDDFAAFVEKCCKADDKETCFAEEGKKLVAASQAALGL

N=C(N)NN [Aminoguanidine]
non-enzymatic glycosylation of human serum albumin in vitro (human serum albumin): effective | % [14C-glucose] Incorporated (human serum albumin): 0.96 (P < 0.05 vs. Control) % | non-enzymatic glycosylation of proteins (proteins): inhibit | effect on blood glucose level (rats [1]; normal rodents or rats made diabetic by alloxan or streptozotocin): no effect | effect on body weight ([2]; human and rats (Baylin et al.)): increase in body weight | effect on body weight ([2]; normal or diabetic rats): no effect | formation of advanced glycosylation endproducts [3]: inhibit

CN(C)C(=N)N=C(N)N [Metformin]
glucose tolerance (mice [4]; normal mice, 50 mg/kg): not affect glucose tolerance | oral glucose tolerance (mice [4]; normal mice, 250 mg/kg): oral glucose tolerance was increased | effect on body weight ([5]; KKAy mice, 1700 mg/kg/day, not at lower doses): statistically significant weight loss | effect on body weight ([5]; diabetic ob/ob mice, 240 mg/kg/day): did not cause weight loss | effect on body weight ([5]; streptozotocin-diabetic mice, 60 mg/kg/day): did not cause weight loss | effect on body weight ([6]; non-insulin dependent diabetic patients treated for one year (Bailey)): cause weight loss | effect on body weight ([6]; obese non-insulin dependent diabetic patients, similar length of time (Multi-centre Study)): no significant effect | glucose tolerance (rats [7]; normal rats, 750 mg/kg): not affect glucose tolerance | oral glucose tolerance (rats [7]; streptozotocin-diabetic rats, 250 mg/kg): oral glucose tolerance was increased | effect on hyperglycemia (rats [1]; Zucker fa/fa rats, 350 mg/kg/day): reduces hyperglycemia | effect on hyperglycemia (rats [1]; neonatal streptozotocin-diabetic rats, 100 mg/kg/day): reduces hyperglycemia | effect on blood glucose level (rats [1]; rats, acute administration, 264 mg/kg): did not affect | non-enzymatic glycosylation of erythrocyte plasma membranes ([8]; 0.5 and 5 micromoles per liter): inhibit non-enzymatic glycosylation | non-enzymatic glycosylation of erythrocyte plasma membranes ([8]; 50 and 100 micromoles per liter): reverse effect | effect on hyperglycemia (mice [9]; DBM mice, 400 mg/kg/day): reduces hyperglycemia | dose required to reduce the blood glucose level by 25% (mice [9]; KKAy mice (Meglasson et al.)): 300 mg/kg/day | effect on hyperglycemia (mice [9]; KKAy mice, 300 mg/kg/day or more): reduces hyperglycemia | effect on blood glucose concentration (mice [9]; diabetic ob/ob mice): did not affect | effect on blood glucose concentration (mice [9]; normal mice): did not affect | effect on blood glucose concentration (mice [9]; streptozotocin-diabetic mice): did not affect

N=C(N)NCCC(=O)O [3-Guanidinopropionic acid]
glucose tolerance (mice [4]; diabetic KKAy mice, 1% admixture in chow, approximately 1000 mg/kg/day): improves glucose tolerance | dose required to reduce the blood glucose level by 20% (KKAy mice [10]): 130 mg/kg/day | % Change Blood Glucose (KKAy mice [10]; [13]): −38.4 ± 4.4 % | non-enzymatic glycosylation of human serum albumin in vitro (human serum albumin): no effect | % [14C-glucose] Incorporated (human serum albumin): 1.52% | % Change Body Weight [11, 13]: −5.4 ± 0.81 %

CCCCNC(=N)NC(=N)N [buformin]
effect on blood glucose level (rats [1]; rats, acute administration, 132 mg/kg): did not affect

NNC(=NCC(=O)O)NN [N-(dihydrazinomethylene)-glycine]
Blood Glucose (KKAy mice [12]; [14]): 383 ± 38 mg/dL | Blood Glucose (KKAy mice [12]; [15]): 396 ± 63 mg/dL | Blood Glucose (KKAy mice [12]; [16]): 392 ± 67 mg/dL | Blood Glucose (KKAy mice [12]; [17]): 115 ± 16 mg/dL | glucose tolerance (KKAy mice [12]; diabetic KKAy mice, 100 mg/kg): improved glucose tolerance | dose for a similar (25%) reduction in the blood glucose level (KKAy mice [10]): 30 to 60 mg/kg/day | dose required to reduce the blood glucose level by 20% (KKAy mice [10]): 30 mg/kg/day | % Change Blood Glucose (KKAy mice [10]; [18]): −13.5 ± 10.5% | % Change Blood Glucose (KKAy mice [10]; [19]): −34.9 ± 17.1 % | decrease in the blood glucose level (KKAy mice [10]; 60 mg/kg/day, 4 days): 35% | % Change Blood Glucose (KKAy mice [10]; [20]): −45.2 ± 6.4 % | % Change Blood Glucose (KKAy mice [10]; [21]): −69.9 ± 3.2 ¶ % | % Change Blood Glucose (KKAy mice [10]; [22]): −70.4 ± 1.5 ¶ % | % Change Blood Glucose (KKAy mice [10]; [23]): −70.3 ± 3.9 ¶ % | non-enzymatic glycosylation of human serum albumin in vitro (human serum albumin): reduced | % [14C-glucose] Incorporated (human serum albumin): 0.81 (P < 0.05 vs. Control) % | Blood Glucose (C57BL mice; [14]): 174 ± 17 mg/dL | Blood Glucose (C57BL mice; [15]): 153 ± 7 mg/dL | Blood Glucose (C57BL mice; [16]): 161 ± 19 mg/dL | Blood Glucose (C57BL mice; [17]): 114 ± 9 mg/dL | fasting blood glucose concentration (C57BL mice; normal C57BL mice, 100 mg/kg): decreased | glucose tolerance (C57BL mice; normal C57BL mice, 100 mg/kg): improved glucose tolerance | % Change Body Weight [11, 18]: −0.92 ± 0.35% | % Change Body Weight [11, 19]: −1.51 ± 2.11% | % Change Body Weight [11, 20]: −4.04 ± 0.76 % | decrease in the body weight ([11]; 100 mg/kg/day, 4 days): 4% | % Change Body Weight [11, 21]: −8.22 ± 1.05 % | % Change Body Weight [11, 22]: −9.94 ± 1.62 ¶ % | % Change Body Weight [11, 23]: −10.3 ± 0.97 ¶ %

Cl.N=C(N)NNCC(=O)O [[2-(aminoiminomethyl)hydrazino]-, monohydrochloride acetic acid]
non-enzymatic glycosylation of human serum albumin in vitro (human serum albumin): reduced | % [14C-glucose] Incorporated (human serum albumin): 1.29 (P < 0.10 vs. Control) %

N/N=C(\N)NN [Diaminoguanidine]
non-enzymatic glycosylation of proteins (proteins): inhibit | effect on blood glucose level (rats [1]; [24]): no effect | effect on body weight [2, 24]: does not affect | formation of advanced glycosylation endproducts [3]: inhibit

Source: patent US20020082448A1, “Aminoguanidine carboxylates for the treatment of non-insulin-dependent diabetes mellitus” (The Upjohn Company, priority 1999, published 2002)
